In ChEMBL document CHEMBL5154702, “Synthesis and biological evaluation of aminobenzamides containing purine moiety as class I histone deacetylases inhibitors” (Bioorg Med Chem, 2022):
The source made the active and inactive calls. No cut-off for these calls is given here.

Key:
[1] = target: Histone deacetylase 3/Nuclear receptor corepressor 2 (HDAC3/NCoR2) (Homo sapiens, UniProt O15379); experiment: biochemical; parameters: species or system Sf9
Histone deacetylase = assay type: cell-based, Homo sapiens; details: hela
Histone deacetylase 1 = Histone deacetylase 1 (Homo sapiens, UniProt Q13547); experiment: Potency index, ratio of MS-275 IC50 to test compound IC50 for inhibition of recombinant human full-length C-terminal Flag-His6-tagged HDAC1 (1 to 482 residues) expressed in Sf9 insect cells
Chain of Histone deacetylase 1 (Q13547 whole entry, the tested form may be a part): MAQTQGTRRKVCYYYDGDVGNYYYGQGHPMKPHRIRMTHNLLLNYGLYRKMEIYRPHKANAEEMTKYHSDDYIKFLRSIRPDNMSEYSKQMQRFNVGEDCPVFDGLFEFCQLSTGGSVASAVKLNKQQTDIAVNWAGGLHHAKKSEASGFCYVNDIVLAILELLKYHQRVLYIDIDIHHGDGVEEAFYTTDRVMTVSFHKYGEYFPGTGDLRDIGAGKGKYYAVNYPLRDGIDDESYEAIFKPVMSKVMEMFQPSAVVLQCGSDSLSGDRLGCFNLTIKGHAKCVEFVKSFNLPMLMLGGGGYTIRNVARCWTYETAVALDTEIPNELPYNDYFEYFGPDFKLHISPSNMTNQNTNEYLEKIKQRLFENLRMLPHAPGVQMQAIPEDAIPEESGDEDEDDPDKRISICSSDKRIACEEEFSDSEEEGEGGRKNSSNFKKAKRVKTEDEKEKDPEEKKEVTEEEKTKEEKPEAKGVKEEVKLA

SGC-7901 = experiment: Antiproliferative activity against human SGC-7901 cells measured after 48 hrs by MTT assay; assay type: functional, cell-based; details: SGC-7901, 48 h
K562 = experiment: cells; assay type: functional, cell-based; details: Homo sapiens, K562, 48 h
MDA-MB-231 [2] = experiment: Potency index, ratio of MS-275 IC50 to test compound IC50 for antiproliferative activity against human MDA-MB-231 cells; assay type: functional
MDA-MB-231 [3] = experiment: Potency index, ratio of SAHA IC50 to test compound IC50 for antiproliferative activity against human MDA-MB-231 cells; assay type: functional
[4] = target: Histone deacetylase 1/2/3 (Homo sapiens) (UniProt Q13547+O15379+Q92769); experiment: Inhibition of HDAC1/HDAC2/HDAC3 in human HCT-116 cells assessed as increase in accumulation of acetylated H4K5 measured after 24 hrs by Western blot analysis; assay type: cell-based; details: dose 0.1-10 µM, DDE = dose-dependent effect
HCT-116 [5] = experiment: Induction of cell morphological changes in human HCT-116 cells assessed as […] deformation at 0.5 to 5 uM measured after 24 hrs by phase contrast microscopy; assay type: functional, cell-based; details: dose 0.5-5 µM
HCT-116 [6] = experiment: Induction of cell morphological changes in human HCT-116 cells assessed as cell shrinkage at 0.5 to 5 uM measured after 24 hrs by phase contrast microscopy; assay type: functional, cell-based; details: dose 0.5-5 µM
HCT-116 [7] = experiment: Induction of cell morphological changes in human HCT-116 cells assessed as cell fragmentation at 0.5 to 5 uM measured after 24 hrs by phase contrast microscopy; assay type: functional, cell-based; details: dose 0.5-5 µM
HCT-116 [8] = experiment: Induction of cell morphological changes in human HCT-116 cells assessed as chromatin condensation at 0.5 to 5 uM measured after 24 hrs by Hoechst 33258 staining based fluorescence microscopy; assay type: functional; details: dose 0.5-5 µM
HCT-116 [9] = experiment: Induction of apoptosis in human HCT-116 cells assessed as viable cells at 1 uM measured after 24 hrs by Annexin V-FITC/propidium iodide staining based flow cytometry (reference value: 87.3%); assay type: functional; details: read-out: Activity
HCT-116 [10] = experiment: Induction of apoptosis in human HCT-116 cells assessed as early apoptotic cells at 1 uM measured after 24 hrs by Annexin V-FITC/propidium iodide staining based flow cytometry (reference value: 1.87%); assay type: functional
HCT-116 [11] = experiment: Induction of apoptosis in human HCT-116 cells assessed as late apoptotic cells at 1 uM measured after 24 hrs by Annexin V-FITC/propidium iodide staining based flow cytometry (reference value: 3.43%); assay type: functional
HCT-116 [12] = experiment: Cell cycle arrest in human HCT-116 cells assessed as accumulation of cells at G0/G1 phase at 0.1 uM measured after 24 hrs by propidium iodide staining based flow cytometry (reference value: 58.05%); assay type: functional
HCT-116 [13] = experiment: Cell cycle arrest in human HCT-116 cells assessed as accumulation of cells at G2/M phase at 0.1 uM measured after 24 hrs by propidium iodide staining based flow cytometry (reference value: 22.74%); assay type: functional
HCT-116 [14] = experiment: Cell cycle arrest in human HCT-116 cells assessed as accumulation of cells at G0/G1 phase at 0.5 uM measured after 24 hrs by propidium iodide staining based flow cytometry (reference value: 58.05%); assay type: functional
HCT-116 [15] = experiment: Cell cycle arrest in human HCT-116 cells assessed as accumulation of cells at G2/M phase at 0.5 uM measured after 24 hrs by propidium iodide staining based flow cytometry (reference value: 22.74%); assay type: functional
HCT-116 [16] = experiment: Cell cycle arrest in human HCT-116 cells assessed as accumulation of cells at G0/G1 phase at 1 uM measured after 24 hrs by propidium iodide staining based flow cytometry (reference value: 58.05%); assay type: functional
HCT-116 [17] = experiment: Cell cycle arrest in human HCT-116 cells assessed as accumulation of cells at G0/G1 phase at 5 uM measured after 24 hrs by propidium iodide staining based flow cytometry (reference value: 58.05%); assay type: functional
HCT-116 [18] = experiment: Cell cycle arrest in human HCT-116 cells assessed as increase in accumulation of cells at G0/G1 phase at 10 uM by propidium iodide staining based flow cytometry; assay type: functional; details: time 6-24 hrs, TDE = time-dependent effect
HCT-116 [19] = experiment: Cell cycle arrest in human HCT-116 cells assessed as accumulation of cells at G2/M phase at 10 uM measured after 6 hrs by propidium iodide staining based flow cytometry (reference value: 22.74%); assay type: functional
HCT-116 [20] = experiment: Cell cycle arrest in human HCT-116 cells assessed as accumulation of cells at G0/G1 phase at 10 uM measured after 12 hrs by propidium iodide staining based flow cytometry (reference value: 58.05%); assay type: functional
HCT-116 [21] = experiment: Cell cycle arrest in human HCT-116 cells assessed as down regulation of CDK2 expression measured after 24 hrs by Western blot analysis; assay type: functional, cell-based; details: dose 0.1-10 µM, DDE = dose-dependent effect
HCT-116 [22] = experiment: Cell cycle arrest in human HCT-116 cells assessed as down regulation of cyclin D1 expression measured after 24 hrs by Western blot analysis; assay type: functional, cell-based; details: dose 0.1-10 µM, DDE = dose-dependent effect
HCT-116 [23] = experiment: Cell cycle arrest in human HCT-116 cells assessed as down regulation of CDK2 expression at 5 uM by Western blot analysis; assay type: functional, cell-based; details: time 6-48 hrs, TDE = time-dependent effect
HCT-116 [24] = experiment: Cell cycle arrest in human HCT-116 cells assessed as up regulation of p21 expression at 5 uM by Western blot analysis; assay type: functional, cell-based; details: time 6-48 hrs, TDE = time-dependent effect
HCT-116 [25] = experiment: Cell cycle arrest in human HCT-116 cells assessed as up regulation of Bax expression at 5 uM by Western blot analysis; assay type: functional, cell-based; details: time 6-48 hrs, TDE = time-dependent effect
[26] = Half life in rat liver microsomes at 13.8 uM by HPLC analysis; assay type: ADME, Microsome
[27] = Half life in dog liver microsomes at 13.8 uM by HPLC analysis; assay type: ADME, Canis lupus familiaris, Microsome
[28] = Half life in human liver microsomes at 13.8 uM by HPLC analysis; assay type: ADME, Microsome
[29] = Intrinsic clearance in rat liver microsomes assessed per mg protein at 13.8 uM by HPLC analysis; assay type: ADME, Microsome
[30] = Intrinsic clearance in human liver microsomes assessed per mg protein at 13.8 uM by HPLC analysis; assay type: ADME, Microsome

Chain of Histone deacetylase 3/Nuclear receptor corepressor 2 (HDAC3/NCoR2) (O15379 whole entry): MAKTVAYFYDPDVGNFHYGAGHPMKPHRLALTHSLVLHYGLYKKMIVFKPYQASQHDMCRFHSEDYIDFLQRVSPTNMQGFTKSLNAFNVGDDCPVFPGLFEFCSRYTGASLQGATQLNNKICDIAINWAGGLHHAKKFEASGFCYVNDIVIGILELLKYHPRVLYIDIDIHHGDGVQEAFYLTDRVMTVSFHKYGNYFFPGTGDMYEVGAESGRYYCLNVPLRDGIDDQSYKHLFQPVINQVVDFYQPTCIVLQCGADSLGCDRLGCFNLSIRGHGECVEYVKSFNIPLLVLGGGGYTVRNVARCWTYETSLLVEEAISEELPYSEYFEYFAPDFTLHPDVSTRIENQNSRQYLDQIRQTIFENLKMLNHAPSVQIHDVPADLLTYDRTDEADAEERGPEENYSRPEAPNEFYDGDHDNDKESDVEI
Chain of Histone deacetylase 3/Nuclear receptor corepressor 2 (HDAC3/NCoR2) (Q9Y618 whole entry, further chain): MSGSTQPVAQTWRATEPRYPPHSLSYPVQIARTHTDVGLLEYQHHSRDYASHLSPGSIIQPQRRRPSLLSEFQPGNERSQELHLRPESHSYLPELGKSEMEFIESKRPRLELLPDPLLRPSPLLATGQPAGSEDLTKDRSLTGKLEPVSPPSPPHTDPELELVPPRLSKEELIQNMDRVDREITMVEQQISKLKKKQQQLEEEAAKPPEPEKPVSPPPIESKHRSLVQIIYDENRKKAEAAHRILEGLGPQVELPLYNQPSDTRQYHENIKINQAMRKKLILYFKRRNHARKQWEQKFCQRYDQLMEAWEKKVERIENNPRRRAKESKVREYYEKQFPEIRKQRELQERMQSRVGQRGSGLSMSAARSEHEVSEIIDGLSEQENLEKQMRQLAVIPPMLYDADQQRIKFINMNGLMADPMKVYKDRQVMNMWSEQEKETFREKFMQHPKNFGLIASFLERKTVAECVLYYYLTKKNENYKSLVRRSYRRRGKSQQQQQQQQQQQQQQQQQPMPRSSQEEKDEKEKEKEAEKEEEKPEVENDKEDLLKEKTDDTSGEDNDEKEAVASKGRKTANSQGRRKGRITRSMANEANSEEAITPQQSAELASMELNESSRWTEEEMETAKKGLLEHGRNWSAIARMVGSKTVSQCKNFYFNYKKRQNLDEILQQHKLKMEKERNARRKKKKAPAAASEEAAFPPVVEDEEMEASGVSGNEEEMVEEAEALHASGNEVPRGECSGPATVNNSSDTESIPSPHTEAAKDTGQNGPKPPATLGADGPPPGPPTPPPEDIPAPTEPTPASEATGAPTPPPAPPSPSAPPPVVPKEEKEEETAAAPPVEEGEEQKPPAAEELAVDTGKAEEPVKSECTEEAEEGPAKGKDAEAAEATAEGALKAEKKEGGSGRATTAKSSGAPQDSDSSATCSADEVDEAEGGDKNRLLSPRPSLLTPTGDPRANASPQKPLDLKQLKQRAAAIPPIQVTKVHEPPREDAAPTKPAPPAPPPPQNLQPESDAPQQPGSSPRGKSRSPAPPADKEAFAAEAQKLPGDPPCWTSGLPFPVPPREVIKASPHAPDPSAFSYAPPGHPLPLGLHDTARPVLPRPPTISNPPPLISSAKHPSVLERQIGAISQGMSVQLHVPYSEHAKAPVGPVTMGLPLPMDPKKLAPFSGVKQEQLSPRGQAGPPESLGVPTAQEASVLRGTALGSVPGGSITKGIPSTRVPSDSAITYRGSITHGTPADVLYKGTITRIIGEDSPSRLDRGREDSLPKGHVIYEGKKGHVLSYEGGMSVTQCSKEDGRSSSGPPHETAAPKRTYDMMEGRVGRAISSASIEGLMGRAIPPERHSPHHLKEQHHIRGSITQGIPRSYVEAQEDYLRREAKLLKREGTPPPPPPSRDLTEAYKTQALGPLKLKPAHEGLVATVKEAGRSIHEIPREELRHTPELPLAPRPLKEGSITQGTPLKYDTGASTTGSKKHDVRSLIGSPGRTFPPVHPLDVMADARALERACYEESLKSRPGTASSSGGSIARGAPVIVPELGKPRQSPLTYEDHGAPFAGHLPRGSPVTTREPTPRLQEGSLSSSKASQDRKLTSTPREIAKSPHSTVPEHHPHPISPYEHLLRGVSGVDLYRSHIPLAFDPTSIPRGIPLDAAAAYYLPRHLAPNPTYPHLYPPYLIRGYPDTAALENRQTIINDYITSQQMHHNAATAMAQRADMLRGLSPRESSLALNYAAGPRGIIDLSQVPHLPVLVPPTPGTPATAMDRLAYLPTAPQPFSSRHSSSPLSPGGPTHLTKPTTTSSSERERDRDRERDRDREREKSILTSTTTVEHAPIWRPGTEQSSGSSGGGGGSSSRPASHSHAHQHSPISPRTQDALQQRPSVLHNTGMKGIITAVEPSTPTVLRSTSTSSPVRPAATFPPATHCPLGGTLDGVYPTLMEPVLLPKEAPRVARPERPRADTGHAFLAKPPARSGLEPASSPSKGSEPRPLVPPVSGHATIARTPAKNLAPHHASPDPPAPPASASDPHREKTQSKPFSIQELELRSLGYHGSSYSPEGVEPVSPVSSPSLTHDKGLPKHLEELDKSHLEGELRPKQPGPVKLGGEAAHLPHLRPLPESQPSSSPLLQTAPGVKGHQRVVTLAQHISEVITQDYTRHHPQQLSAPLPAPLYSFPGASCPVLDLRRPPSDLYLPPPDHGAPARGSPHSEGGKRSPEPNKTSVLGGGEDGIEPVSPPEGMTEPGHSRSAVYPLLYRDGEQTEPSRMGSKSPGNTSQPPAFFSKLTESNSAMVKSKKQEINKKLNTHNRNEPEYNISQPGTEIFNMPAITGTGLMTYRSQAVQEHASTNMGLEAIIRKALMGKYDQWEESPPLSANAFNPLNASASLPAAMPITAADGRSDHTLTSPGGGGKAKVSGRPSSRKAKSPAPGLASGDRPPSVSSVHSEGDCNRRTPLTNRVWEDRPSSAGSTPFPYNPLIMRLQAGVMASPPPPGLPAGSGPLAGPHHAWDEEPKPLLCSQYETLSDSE

IC50 [1]: 1.24 µM
IC50 (Histone deacetylase): 0.0275 µM
Ratio IC50 (Histone deacetylase 1): 12
IC50 (SGC-7901): 1.52 µM
IC50 (K562): 0.12 µM
inhibition [4]: Dde
half-life at 13.8 µM [26]: 1.2 h
half-life at 13.8 µM [27]: 3.73 h
half-life at 13.8 µM [28]: 4.62 h
CLint [29]: 9.6 µL/min/mg
CLint [30]: 2.5 µL/min/mg
Compound: CCCCNc1nc(Cl)nc2c1ncn2Cc1ccc(C(=O)Nc2ccccc2N)cc1
Ratio IC50 (MDA-MB-231 [2]): 4
Ratio IC50 (MDA-MB-231 [3]): 4
Activity (HCT-116 [5]): Active
Activity (HCT-116 [6]): Active
Activity (HCT-116 [7]): Active
Activity (HCT-116 [8]): Active
viability at 1 µM (HCT-116 [9]): 40.4%
Activity (HCT-116 [10]): 49.4%
Activity (HCT-116 [11]): 8.94%
Activity (HCT-116 [12]): 59.1%
Activity (HCT-116 [13]): 23.95%
Activity (HCT-116 [14]): 64.42%
Activity (HCT-116 [15]): 20.23%
Activity (HCT-116 [16]): 66.71%
Activity (HCT-116 [17]): 67.96%
Activity (HCT-116 [18]): Tde
Activity (HCT-116 [19]): 20.04%
Activity (HCT-116 [20]): 71.11%
Activity (HCT-116 [21]): Dde
Activity (HCT-116 [22]): Dde
Activity (HCT-116 [23]): Tde
Activity (HCT-116 [24]): Tde
Activity (HCT-116 [25]): Tde
